pIC50: −log10 of the molar value.
How the values were obtained:
UBE3A = biological target: T1, UBE3A (Homo sapiens, UniProt Q05086); assay: in vitro HECT-domain auto-ubiquitination assay, UBE3A; type: biochemical
T1 construct: HECT-domains of multiple ligases auto-ubiquitinate in in vitro assays containing both UBA1 and UbcH5b
T1 sequence (Q05086 518-875 limits assumed): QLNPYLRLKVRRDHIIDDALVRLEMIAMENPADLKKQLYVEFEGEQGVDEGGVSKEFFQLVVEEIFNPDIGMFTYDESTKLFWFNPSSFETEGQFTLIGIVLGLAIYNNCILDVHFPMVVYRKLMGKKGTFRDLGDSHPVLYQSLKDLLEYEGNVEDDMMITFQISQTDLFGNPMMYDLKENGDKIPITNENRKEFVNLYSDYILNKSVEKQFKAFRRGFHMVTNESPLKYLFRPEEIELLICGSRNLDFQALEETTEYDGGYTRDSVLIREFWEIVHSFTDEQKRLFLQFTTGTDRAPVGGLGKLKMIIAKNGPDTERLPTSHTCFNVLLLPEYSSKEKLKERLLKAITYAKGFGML

[1] = tested on: crypt cultures of normal intestinal epithelial cells; assay: Survival and viability of intestinal crypt (organoid) cultures; conditions: for fraction of individual crypts that died: long-term incubation of primary crypt cultures
Method: Murine intestinal crypt cultures were established from wild-type mice of a mixed background (50% C57Bl6J, 50% S129) as previously described (Sato et al, [2009]). Briefly, intestines were isolated and flushed with PBS. Villi were removed by scraping and remaining tissue cut and washed with PBS. Crypt extraction was carried out in PBS + 2 mM EDTA for 30 min at 4 °C. Isolated crypts were washed with PBS and plated in growth factor reduced Matrigel (BD Biosciences). Crypts were grown in Advanced DMEM (Invitrogen) supplemented with N2 (Invitrogen), B27 (Invitrogen), EGF (Peprotech), Noggin (Peprotech), and R-spondin (Peprotech). Media were replaced every 2 days and crypts passaged weekly. […] Organoid survival was scored at this point based on their microscopic appearance. Cell viability was also determined using a CellTiter-Blue Cell Viability Assay (Promega) according to the manufacturer's instructions.
end of the experiment, the number of life crypts was counted by visual inspection.

HUWE1 = biological target: T2, HUWE1 (Homo sapiens, UniProt Q7Z6Z7); assay: In vivo (cellular) ubiquitination of MCL1 by ectopic HA-HUWE1 in HeLa cells; type: cell-based; conditions: HeLa cells transfected with MCL1, His-ubiquitin, inhibitor 16 hrs, read-out: IC50 relative MCL1 ubiquitination
T2 construct: expressed in transfected cells; host or cells: HeLa
T2 sequence (Q7Z6Z7 whole entry): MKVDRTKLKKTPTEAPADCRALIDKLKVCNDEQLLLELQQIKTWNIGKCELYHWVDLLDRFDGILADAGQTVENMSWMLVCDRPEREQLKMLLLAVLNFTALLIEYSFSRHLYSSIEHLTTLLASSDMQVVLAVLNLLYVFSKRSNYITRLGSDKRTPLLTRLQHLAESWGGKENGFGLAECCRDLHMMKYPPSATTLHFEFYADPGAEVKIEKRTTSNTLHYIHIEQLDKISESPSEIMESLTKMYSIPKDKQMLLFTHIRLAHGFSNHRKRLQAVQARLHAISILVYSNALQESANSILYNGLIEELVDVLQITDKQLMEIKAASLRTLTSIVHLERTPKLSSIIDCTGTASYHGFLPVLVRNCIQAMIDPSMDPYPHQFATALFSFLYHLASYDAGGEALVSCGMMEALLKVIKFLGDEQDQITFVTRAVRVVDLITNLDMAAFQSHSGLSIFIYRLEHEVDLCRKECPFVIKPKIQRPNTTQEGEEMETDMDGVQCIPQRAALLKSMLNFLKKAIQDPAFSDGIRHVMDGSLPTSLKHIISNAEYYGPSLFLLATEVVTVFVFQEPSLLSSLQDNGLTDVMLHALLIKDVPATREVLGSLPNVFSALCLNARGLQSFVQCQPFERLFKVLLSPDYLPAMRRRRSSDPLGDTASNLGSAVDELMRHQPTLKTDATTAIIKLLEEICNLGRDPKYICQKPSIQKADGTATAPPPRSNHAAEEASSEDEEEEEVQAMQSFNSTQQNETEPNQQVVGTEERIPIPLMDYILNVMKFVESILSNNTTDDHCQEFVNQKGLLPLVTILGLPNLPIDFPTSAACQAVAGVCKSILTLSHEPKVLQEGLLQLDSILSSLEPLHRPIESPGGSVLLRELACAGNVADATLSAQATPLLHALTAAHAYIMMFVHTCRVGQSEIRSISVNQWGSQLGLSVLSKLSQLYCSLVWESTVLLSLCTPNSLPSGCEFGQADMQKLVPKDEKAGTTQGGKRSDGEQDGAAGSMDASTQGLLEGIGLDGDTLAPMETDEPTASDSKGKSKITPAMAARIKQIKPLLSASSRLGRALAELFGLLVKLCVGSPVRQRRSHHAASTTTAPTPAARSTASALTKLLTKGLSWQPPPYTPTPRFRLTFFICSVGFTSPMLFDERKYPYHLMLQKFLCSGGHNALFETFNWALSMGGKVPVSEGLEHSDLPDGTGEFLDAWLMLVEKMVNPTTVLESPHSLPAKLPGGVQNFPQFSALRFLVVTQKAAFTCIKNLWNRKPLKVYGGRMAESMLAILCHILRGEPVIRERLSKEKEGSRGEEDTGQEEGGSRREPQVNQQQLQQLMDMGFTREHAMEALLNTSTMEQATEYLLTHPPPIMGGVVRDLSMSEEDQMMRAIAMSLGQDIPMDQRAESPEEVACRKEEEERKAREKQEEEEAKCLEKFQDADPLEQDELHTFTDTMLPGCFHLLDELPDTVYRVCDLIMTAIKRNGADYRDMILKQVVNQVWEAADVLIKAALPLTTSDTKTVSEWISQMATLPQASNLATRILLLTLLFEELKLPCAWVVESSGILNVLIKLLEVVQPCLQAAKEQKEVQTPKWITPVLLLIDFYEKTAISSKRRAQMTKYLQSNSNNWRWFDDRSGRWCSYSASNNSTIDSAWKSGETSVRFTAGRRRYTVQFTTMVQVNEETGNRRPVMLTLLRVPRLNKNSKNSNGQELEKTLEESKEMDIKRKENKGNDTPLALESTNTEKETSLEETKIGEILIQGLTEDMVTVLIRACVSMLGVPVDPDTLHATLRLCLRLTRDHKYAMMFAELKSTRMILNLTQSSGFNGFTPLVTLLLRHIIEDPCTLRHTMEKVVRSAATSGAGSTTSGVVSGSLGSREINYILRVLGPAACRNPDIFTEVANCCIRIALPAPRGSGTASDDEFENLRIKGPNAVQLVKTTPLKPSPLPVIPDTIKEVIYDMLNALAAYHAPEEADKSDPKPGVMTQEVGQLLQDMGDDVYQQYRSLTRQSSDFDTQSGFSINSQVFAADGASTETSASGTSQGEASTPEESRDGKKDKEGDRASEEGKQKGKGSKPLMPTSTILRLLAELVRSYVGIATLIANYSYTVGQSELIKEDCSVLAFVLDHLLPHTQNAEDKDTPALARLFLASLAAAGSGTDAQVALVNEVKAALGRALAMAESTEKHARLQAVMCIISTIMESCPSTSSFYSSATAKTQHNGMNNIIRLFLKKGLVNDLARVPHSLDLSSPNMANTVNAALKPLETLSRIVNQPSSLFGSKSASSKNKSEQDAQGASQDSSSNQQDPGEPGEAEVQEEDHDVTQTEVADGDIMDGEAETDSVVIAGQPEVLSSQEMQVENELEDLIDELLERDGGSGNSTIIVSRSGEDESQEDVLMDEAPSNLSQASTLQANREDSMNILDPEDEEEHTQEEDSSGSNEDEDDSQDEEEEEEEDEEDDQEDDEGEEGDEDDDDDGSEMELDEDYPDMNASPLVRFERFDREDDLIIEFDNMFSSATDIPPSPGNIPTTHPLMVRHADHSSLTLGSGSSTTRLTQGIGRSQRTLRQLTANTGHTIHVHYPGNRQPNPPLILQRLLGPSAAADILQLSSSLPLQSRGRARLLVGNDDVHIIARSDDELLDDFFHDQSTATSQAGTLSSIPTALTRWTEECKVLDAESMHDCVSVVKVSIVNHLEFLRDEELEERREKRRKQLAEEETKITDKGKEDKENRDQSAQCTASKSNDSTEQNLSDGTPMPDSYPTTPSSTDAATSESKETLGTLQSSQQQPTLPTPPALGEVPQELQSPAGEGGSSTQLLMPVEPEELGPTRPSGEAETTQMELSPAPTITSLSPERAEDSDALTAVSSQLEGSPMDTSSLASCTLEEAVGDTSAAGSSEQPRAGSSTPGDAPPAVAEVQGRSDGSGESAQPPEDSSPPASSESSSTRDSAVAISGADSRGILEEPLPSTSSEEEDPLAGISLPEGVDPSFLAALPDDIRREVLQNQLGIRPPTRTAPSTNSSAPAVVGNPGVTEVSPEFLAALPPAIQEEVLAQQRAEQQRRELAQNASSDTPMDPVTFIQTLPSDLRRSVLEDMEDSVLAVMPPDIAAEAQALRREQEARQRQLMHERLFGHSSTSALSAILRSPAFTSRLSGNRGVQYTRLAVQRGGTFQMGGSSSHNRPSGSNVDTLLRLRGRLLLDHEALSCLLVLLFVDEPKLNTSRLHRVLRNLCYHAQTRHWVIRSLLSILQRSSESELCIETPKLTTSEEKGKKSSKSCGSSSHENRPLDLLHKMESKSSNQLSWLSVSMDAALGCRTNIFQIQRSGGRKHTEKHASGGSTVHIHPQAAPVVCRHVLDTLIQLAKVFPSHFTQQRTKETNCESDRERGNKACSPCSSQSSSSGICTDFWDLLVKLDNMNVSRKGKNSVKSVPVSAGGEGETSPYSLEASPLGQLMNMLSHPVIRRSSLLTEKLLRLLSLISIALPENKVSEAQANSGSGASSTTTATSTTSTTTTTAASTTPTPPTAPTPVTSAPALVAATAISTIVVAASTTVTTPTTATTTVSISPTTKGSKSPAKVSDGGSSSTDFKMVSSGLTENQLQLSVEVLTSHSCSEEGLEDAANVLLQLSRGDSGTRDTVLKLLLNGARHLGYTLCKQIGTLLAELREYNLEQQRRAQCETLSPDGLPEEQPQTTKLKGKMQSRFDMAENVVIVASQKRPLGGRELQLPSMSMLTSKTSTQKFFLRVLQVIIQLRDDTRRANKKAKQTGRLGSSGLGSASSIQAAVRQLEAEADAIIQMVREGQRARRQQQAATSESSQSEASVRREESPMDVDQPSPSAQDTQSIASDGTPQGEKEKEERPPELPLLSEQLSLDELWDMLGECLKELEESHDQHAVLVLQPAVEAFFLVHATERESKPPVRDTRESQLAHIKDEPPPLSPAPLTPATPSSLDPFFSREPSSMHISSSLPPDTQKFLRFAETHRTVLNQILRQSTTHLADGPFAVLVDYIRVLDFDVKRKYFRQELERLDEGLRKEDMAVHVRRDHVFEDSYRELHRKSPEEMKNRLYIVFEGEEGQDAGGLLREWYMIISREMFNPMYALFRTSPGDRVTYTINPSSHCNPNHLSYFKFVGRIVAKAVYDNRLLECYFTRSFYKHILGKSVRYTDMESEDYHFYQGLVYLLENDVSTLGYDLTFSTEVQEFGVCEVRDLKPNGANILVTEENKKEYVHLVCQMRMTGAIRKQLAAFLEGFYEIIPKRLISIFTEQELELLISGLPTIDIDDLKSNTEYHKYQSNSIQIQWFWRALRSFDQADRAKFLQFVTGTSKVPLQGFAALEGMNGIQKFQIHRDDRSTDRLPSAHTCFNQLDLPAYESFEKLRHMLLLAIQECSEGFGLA
From the text: HeLa cells were transfected with plasmids expressing MCL1, His-ubiquitin, and HA-HUWE1. […] After lysis, ubiquitin-modified proteins were recovered by Ni-NTA-Agarose and immunoblots of the eluates were probed with an antibody against MCL1. […] At the same time, cells were irradiated with 500 J/m^2 UVB and harvested after indicated time points. Immunoblots of the lysates were probed with antibodies recognizing either MCL1 or CDK2 as control. Quantification of the MCL1 protein levels for the according experiment is shown directly below the immunoblots. Diagrams below the immunoblots show mean protein levels ± SD (n = 5). From the data, the half-life of the MCL1 protein was determined with P-values calculated using a Student's t-test. • Effects of HUWE1 inhibition on levels of TopBP1. […] Cell lysates were fractionated in chromatin-bound and soluble non-chromatin-bound fractions. Immunoblots of the soluble fraction were incubated with indicated antibodies.
To test the efficacy of both compounds in tissue culture, we initially confirmed observations that HUWE1 ubiquitinates and degrades MCL1 in response to DNA damage (Zhong et al, [2005]). Consistent with these published data, steady-state levels of MCL1 decreased rapidly upon UV irradiation of U2OS cells and depletion of HUWE1 both enhanced steady-state levels of MCL1 and retarded the decrease upon UV irradiation (Supplementary Fig S4A). […]

HECW2 = biological target: T3, HECW2 (Homo sapiens, UniProt Q9P2P5); assay: in vitro HECT-domain auto-ubiquitination assay, HECW2; type: biochemical
T3 construct: HECT-domains of multiple ligases auto-ubiquitinate in in vitro assays containing both UBA1 and UbcH5b
T3 sequence (Q9P2P5 1237-1572 limits assumed, species assumed): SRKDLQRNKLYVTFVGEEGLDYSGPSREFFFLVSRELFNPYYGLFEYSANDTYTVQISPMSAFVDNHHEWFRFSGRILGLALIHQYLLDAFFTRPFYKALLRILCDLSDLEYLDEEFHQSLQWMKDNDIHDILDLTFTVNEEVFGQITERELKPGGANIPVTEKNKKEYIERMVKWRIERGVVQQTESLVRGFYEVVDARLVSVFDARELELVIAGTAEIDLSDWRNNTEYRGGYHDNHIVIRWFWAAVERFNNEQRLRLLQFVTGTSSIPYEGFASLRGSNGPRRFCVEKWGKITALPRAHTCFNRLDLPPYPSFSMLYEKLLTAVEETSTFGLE

NEDD4 = biological target: T4, NEDD4 (Homo sapiens, UniProt P46934); assay: in vitro HECT-domain auto-ubiquitination assay, NEDD4; type: biochemical
T4 construct: HECT-domains of multiple ligases auto-ubiquitinate in in vitro assays containing both UBA1 and UbcH5b
T4 sequence (P46934 984-1318 limits assumed, species assumed): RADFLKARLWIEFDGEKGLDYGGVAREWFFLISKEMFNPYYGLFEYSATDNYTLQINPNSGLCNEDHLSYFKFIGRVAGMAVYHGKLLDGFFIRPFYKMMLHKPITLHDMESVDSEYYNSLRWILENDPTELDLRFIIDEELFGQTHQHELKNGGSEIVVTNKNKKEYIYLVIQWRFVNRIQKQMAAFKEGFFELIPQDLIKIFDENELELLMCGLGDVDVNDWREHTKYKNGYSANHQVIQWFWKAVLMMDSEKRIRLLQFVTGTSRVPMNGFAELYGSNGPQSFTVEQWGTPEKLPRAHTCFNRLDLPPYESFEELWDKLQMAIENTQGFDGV
Method: Briefly, the HECT-domain of HUWE1 was biotin-tagged, attached to streptavidin-coated 96-well plates, and incubated with UBA1, UbcH5b, a ubiquitin-conjugating enzyme that supports HUWE1 activity in vitro (Adhikary et al, [2005]), ATP, and MYC-tagged ubiquitin. Auto-ubiquitination was detected using a europium-labeled MYC antibody and appropriate detection reagents (Fig3A). […] These assays were used to analyze the specificity of the identified inhibitors.

NEDD4L = biological target: T5, NEDD4L (Homo sapiens, UniProt Q96PU5); assay: in vitro HECT-domain auto-ubiquitination assay, NEDD4L; type: biochemical
T5 construct: HECT-domains of multiple ligases auto-ubiquitinate in in vitro assays containing both UBA1 and UbcH5b
T5 sequence (Q96PU5 640-974 limits assumed): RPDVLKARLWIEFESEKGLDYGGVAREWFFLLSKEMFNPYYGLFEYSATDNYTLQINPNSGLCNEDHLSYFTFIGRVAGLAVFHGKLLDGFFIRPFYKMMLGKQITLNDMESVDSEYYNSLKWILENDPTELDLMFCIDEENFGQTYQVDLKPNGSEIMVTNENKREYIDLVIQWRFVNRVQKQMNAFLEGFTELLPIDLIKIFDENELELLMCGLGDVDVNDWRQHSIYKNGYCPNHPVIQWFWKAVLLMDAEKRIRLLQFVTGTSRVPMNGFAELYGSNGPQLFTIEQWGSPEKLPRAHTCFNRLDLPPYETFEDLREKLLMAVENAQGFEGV

Row | SMILES | pIC50 (UBE3A) | Ki67 staining of intestinal crypts ([1]; 10 µM, 24 hr) | MTT assay corrected for number of live crypts ([1]; 10 µM, 24 hr) | number of live crypts, % of all crypts ([1]; 10 µM, 24 hr, visual inspection) [%] | fraction of individual crypts that died [1] | pIC50 (HUWE1) | pIC50 (HECW2) | pIC50 (NEDD4) | pIC50 (NEDD4L)
1 | Cc1c(C(=O)Nc2ccc(CN)cc2)ncnc1N1CCC(C#N)(c2ccccc2)CC1 [BI8622] | < 4.30 | Ki67-positive | no reduction | 68 | around 30% | 5.17 | < 4.30 | < 4.30 | < 4.30
2 | NCc1cccc(CNc2ncnc3c(N4CCN(Cc5ccccc5)CC4)ncnc23)c1 [BI8626] | < 4.30 | – | – | – | 60-80% | – | < 4.30 | – | < 4.30

Source: paper PMC4287973, “Tumor cell-specific inhibition of MYC function using small molecule inhibitors of the HUWE1 ubiquitin ligase” (EMBO Molecular Medicine, 2014)
